Assay results taken from PubChem BioAssay (NCI).
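96-well plates; 48 h exposure; 5 concentrations. Endpoints by linear interpolation between flanking doses. Not reached: highest tested concentration assigned. The concentration for 50% growth inhibition is given as GI50. TGI marks complete inhibition of growth.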

What was measured:
Experiment in all cases: NCI-60 cell line screen, 48 h
LOX IMVI melanoma = system: LOX IMVI melanoma
SF-295 CNS = system: SF-295 CNS
ACHN renal = system: ACHN renal
SK-OV-3 ovarian = system: SK-OV-3 ovarian
HOP-92 NSCLC = system: HOP-92 NSCLC
HOP-62 NSCLC = system: HOP-62 NSCLC
RXF 393 renal = system: RXF 393 renal
HCT-15 colon = system: HCT-15 colon
MCF7 breast = system: MCF7 breast
PC-3 prostate = system: PC-3 prostate

| Compound | TGI (LOX IMVI melanoma) | TGI (SF-295 CNS) | TGI (ACHN renal) | TGI (SK-OV-3 ovarian) | TGI (HOP-92 NSCLC) | TGI (HOP-62 NSCLC) | TGI (RXF 393 renal) | GI50 (LOX IMVI melanoma) | GI50 (SF-295 CNS) | GI50 (HCT-15 colon) | TGI (HCT-15 colon) | GI50 (ACHN renal) | GI50 (SK-OV-3 ovarian) | GI50 (MCF7 breast) | TGI (MCF7 breast) | GI50 (HOP-92 NSCLC) | GI50 (HOP-62 NSCLC) | GI50 (PC-3 prostate) | TGI (PC-3 prostate) | GI50 (RXF 393 renal) |
| --- | --- | --- | --- | --- | --- | --- | --- | --- | --- | --- | --- | --- | --- | --- | --- | --- | --- | --- | --- | --- |
| CC1=C(C(=O)Nc2cc(F)c(F)cc2F)C(c2ccc([N+](=O)[O-])cc2)C(C(=O)Nc2cc(F)c(F)cc2F)=C(C)N1 | > 100 µM | > 100 µM | > 100 µM | > 100 µM | 42.2 µM | > 100 µM | 63.2 µM | – | – | – | – | – | – | – | – | – | – | – | – | – |
| c1ccc2c3c([nH]c2c1)C(c1ccc(C2NCCc4c2[nH]c2ccccc42)cc1)NCC3 (centres undefined) | 0.45 µM | 3.33 µM | 2 µM | 4.14 µM | 2.89 µM | 2.8 µM | 2.67 µM | 0.196 µM | 1.62 µM | 0.429 µM | 1.78 µM | 0.713 µM | 1.88 µM | 0.393 µM | 1.75 µM | 0.731 µM | 1.31 µM | 1.27 µM | 2.69 µM | 1.31 µM |
| CC[n+]1c(/C=C/C=C2\N(C)c3ccccc3C2(C)C)sc2ccccc21 | 8.48 µM | 7.55 µM | 8.21 µM | 13.9 µM | 10.8 µM | 9.31 µM | 10.3 µM | 4 µM | 3.88 µM | 4.54 µM | 9.67 µM | 4.1 µM | 5.71 µM | 4.42 µM | 10.4 µM | 3.54 µM | 4.47 µM | 4.29 µM | 11.3 µM | 4.33 µM |
| CC1=C(Nc2ccc(N3CCN(C)CC3)cc2)C(=O)c2cncnc2C1=O | – | 28.1 µM | 5.88 µM | 35.3 µM | 4.37 µM | 60.4 µM | 19.4 µM | – | 11.9 µM | 12.9 µM | 41 µM | 2.31 µM | 16.7 µM | 1.92 µM | 4.19 µM | 2.12 µM | 19.2 µM | 3.05 µM | 11.9 µM | 5.71 µM |
| CCOc1ccc(NC(=O)CC2C(=O)Nc3ccccc3S2(=O)=O)cc1 (centres undefined) | > 100 µM | > 100 µM | > 100 µM | – | 55.5 µM | > 100 µM | > 100 µM | – | – | – | > 100 µM | – | – | – | – | – | – | – | – | – |
| COc1ccc(N=N/C(C(=O)C(F)(F)F)=C(\O)c2ccc(Cl)cc2)cc1 | 21.5 µM | 11.9 µM | > 100 µM | 35.3 µM | – | 63.4 µM | 45 µM | 3.29 µM | 2.67 µM | 4.68 µM | > 100 µM | 6.53 µM | 14.4 µM | 4.11 µM | 37.6 µM | – | 15.5 µM | 10.4 µM | > 100 µM | 12.3 µM |
| O=C(NNc1ccccc1)/C(=C/c1ccc2c(c1)OCO2)NC(=O)c1ccccc1 | > 100 µM | > 100 µM | > 100 µM | > 100 µM | > 100 µM | > 100 µM | > 100 µM | – | – | – | > 100 µM | – | – | – | – | – | – | – | – | – |
| CC(=O)C1=C(O)C2C3c4c[nH]c5cccc(c45)CC3C(C)(C)N2C1=O (centres undefined) | 67.3 µM | > 100 µM | > 100 µM | > 100 µM | > 100 µM | 22.4 µM | – | – | – | – | > 100 µM | – | – | – | – | – | – | – | – | – |
| CSC1NC(c2ccc(Cl)cc2)=C(C#N)C(=O)N1C1OCC(OC(C)=O)C(OC(C)=O)C1OC(C)=O (centres undefined) | > 100 µM | > 100 µM | > 100 µM | > 100 µM | > 100 µM | > 100 µM | – | – | – | – | > 100 µM | – | – | – | > 100 µM | – | – | – | > 100 µM | – |
| O=C(CC(Cl)=C(Cl)Cl)c1cccc(Cl)c1Cl | > 100 µM | – | > 100 µM | > 100 µM | > 100 µM | > 100 µM | > 100 µM | 38.1 µM | – | 47.8 µM | > 100 µM | 47.7 µM | > 100 µM | 66.8 µM | > 100 µM | 61 µM | 82.1 µM | 78.3 µM | > 100 µM | > 100 µM |
| CC(=O)NNc1nc(C)c(C(=O)NNC(=O)C(=O)Nc2ccc(Cl)cc2Cl)s1 | > 100 µM | > 100 µM | 87.9 µM | > 100 µM | 70.9 µM | > 100 µM | – | – | – | – | > 100 µM | – | – | – | – | – | – | – | – | – |
| COc1cccc(-c2cc(=O)c3ccccc3[nH]2)c1 | > 100 µM | 14.8 µM | > 100 µM | > 100 µM | – | > 100 µM | 21 µM | – | – | – | > 100 µM | – | – | – | – | – | – | – | – | – |
| COc1ccc(/C=C/C(=O)c2sc(-n3nc(-c4ccccc4)cc3-c3ccccc3)nc2C)cc1 | > 100 µM | > 100 µM | > 100 µM | > 100 µM | – | > 100 µM | > 100 µM | > 100 µM | > 100 µM | – | > 100 µM | > 100 µM | > 100 µM | – | – | – | > 100 µM | – | – | > 100 µM |
| CC(C)(C)C(C#N)(C#N)c1ccc(C(C#N)(C#N)C(C)(C)C)nn1 | > 100 µM | > 100 µM | > 100 µM | > 100 µM | > 100 µM | > 100 µM | > 100 µM | – | – | – | > 100 µM | – | – | – | – | – | – | – | – | – |
| CCn1c(-c2nonc2N)nc2cncc(C(=O)N3CC[C@H](N)C3)c21 | > 25 µM | > 25 µM | > 25 µM | > 25 µM | – | > 25 µM | > 25 µM | > 25 µM | 5.05 µM | 8.29 µM | > 25 µM | > 25 µM | > 25 µM | 14.1 µM | > 25 µM | – | 7.38 µM | > 25 µM | > 25 µM | > 6.57 µM |
| CN1c2ccccc2N(C(=O)c2ccccc2)C(CC(=O)O)c2cccn21 (centres undefined) | > 100 µM | > 100 µM | > 100 µM | > 100 µM | > 100 µM | > 100 µM | > 100 µM | – | – | – | > 100 µM | – | – | – | – | – | – | – | – | – |
| C[C@]12CCC3[C@@H](CC[C@@H]4c5nonc5CC[C@]34C)C1CC[C@@H]2O (some centres undefined) | 41.1 µM | > 100 µM | 66.3 µM | 84.9 µM | 57.7 µM | > 100 µM | 69.6 µM | – | – | – | 83.5 µM | – | – | – | – | – | – | – | – | – |
| c1ccc2c(c1)cc1n2CC2CN=NC12 (centres undefined) | > 100 µM | > 100 µM | > 100 µM | > 100 µM | – | > 100 µM | > 100 µM | – | – | – | > 100 µM | – | – | – | – | – | – | – | – | – |
| CN(c1ccccc1)c1c(Cl)c(=O)oc2c1ccc1occc12 | > 100 µM | > 100 µM | > 100 µM | – | > 100 µM | – | > 100 µM | – | – | – | > 100 µM | – | – | – | – | – | – | – | – | – |
